Results as given in patent publication US20240277658A1, “NLRP3 ACTIVATORS FOR USE IN THE TREATMENT OF INFECTIOUS DISEASES OR CANCER BY ACTIVATING NLRP3 INFLAMMASOME” (ALBERT-LUDWIGS-UNIVERSITÄT FREIBURG, priority 2020, published 2024).
“And” between values parts separate entries of the source, which are not always exact repeats. Identical values can stand only once. Like-named read-outs stand apart in the source and are kept apart here. Values belong to the compound of their own block, whether it stands above or below them.

Assays:
BMDCs = experiment: LDH release (lytic cell death, pyroptosis) from LPS-primed BMDCs; format: cell-based, mouse; details: for Average (% positive control): LDH release; for cytotoxicity at 25 µM / cytotoxicity at 50 µM / cytotoxicity at 100 µM / cytotoxicity at 20 µM / cytotoxicity at 40 µM / cytotoxicity at 80 µM: Mus musculus, BMDC
Outline: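 Mouse BMDCs (7-9 days differentiated, GM-CSF) primed with 50 ng ml^−1 E. coli K12 LPS for 3 hours, then exposed 3 hours to compounds (50 μM unless indicated) or activators (nigericin 5 μM; R837, CL097 100 μM). Lytic death measured as LDH release by colorimetric assay, triplicate wells.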

NLRP3 inflammasome = target: T1, NLRP3 inflammasome (Mus musculus, UniProt Q8R4B8); experiment: IL-1β release from LPS-primed BMDCs (ELISA) as readout of NLRP3 inflammasome activation; format: cell-based
T1 construct: endogenous in cells; host or cells: primary mouse bone marrow-derived dendritic cells (BMDCs), LPS-primed
T1 sequence (Q8R4B8 whole entry): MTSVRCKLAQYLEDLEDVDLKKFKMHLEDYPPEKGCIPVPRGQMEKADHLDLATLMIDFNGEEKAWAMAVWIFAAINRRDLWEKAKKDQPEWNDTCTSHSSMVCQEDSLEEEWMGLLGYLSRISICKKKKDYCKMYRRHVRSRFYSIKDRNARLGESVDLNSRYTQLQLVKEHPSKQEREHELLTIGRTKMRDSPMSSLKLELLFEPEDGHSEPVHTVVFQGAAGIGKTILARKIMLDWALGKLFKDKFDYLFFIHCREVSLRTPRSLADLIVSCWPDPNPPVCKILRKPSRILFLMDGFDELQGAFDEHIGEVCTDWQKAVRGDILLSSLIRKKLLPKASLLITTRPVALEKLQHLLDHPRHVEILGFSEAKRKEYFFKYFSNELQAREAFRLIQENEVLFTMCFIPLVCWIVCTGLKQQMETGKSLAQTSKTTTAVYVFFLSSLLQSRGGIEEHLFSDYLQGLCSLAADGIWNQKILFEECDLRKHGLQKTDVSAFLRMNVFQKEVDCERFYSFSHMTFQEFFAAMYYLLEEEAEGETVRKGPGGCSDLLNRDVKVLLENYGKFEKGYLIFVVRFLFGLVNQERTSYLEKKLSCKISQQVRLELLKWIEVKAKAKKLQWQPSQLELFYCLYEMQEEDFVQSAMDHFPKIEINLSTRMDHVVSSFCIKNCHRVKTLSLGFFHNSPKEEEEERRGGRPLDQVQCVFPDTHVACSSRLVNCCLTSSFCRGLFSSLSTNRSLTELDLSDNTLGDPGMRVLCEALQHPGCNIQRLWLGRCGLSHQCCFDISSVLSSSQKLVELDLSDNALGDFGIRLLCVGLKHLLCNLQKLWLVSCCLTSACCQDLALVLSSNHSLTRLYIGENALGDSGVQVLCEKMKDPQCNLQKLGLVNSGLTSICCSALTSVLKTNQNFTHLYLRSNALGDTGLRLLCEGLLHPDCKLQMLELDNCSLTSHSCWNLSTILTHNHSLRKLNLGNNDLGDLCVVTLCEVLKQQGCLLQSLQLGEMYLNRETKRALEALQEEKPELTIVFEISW
Outline: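 NLRP3 inflammasome activation was read out as IL-1β released into the supernatant, measured by ELISA. Murine BMDCs were primed with LPS (50 ng ml^−1, 3 hours), then incubated with compounds for 3 hours, with each condition run in three technical replicates. Nigericin at 5 μM acted as the positive control activator, and IL-1β release was also expressed as a percentage of that control.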

[1] = compound 50 μM, positive control nigericin 5 μM
[2] = compound 50 μM, LPS-primed BMDCs, read-out: Average LDH release (% of max.)
[3] = single replicates, compound 50 μM, LPS-primed BMDCs, read-out: LDH release (% of max.)
[4] = IL-1β release, compound 50 μM, positive control nigericin 5 μM
[5] = compound 50 μM, LPS-primed BMDCs
[6] = single replicates, compound 50 μM, LPS-primed BMDCs

Average (% positive control) (NLRP3 inflammasome; [4]): 1.368 % positive control | Average IL-1β (NLRP3 inflammasome; [5]): 0.098 ng/mL
SMILES: Cc1cccc(NC(=O)Nc2ccccc2)c1 [L01.077, 3-(3-methylphenyl)-1-phenylurea]
Average (% positive control) (BMDCs; [1]): 7.980 % positive control | cytotoxicity at 50 µM (BMDCs; [2]): 5.84% | cytotoxicity at 50 µM (BMDCs; [3]): 5.28% | IL-1β (NLRP3 inflammasome; [6]): 0.067 ng/mL and 0.165 ng/mL and 0.062 ng/mL

Average (% positive control) (NLRP3 inflammasome; [4]): 0.975 % positive control | Average IL-1β (NLRP3 inflammasome; [5]): 0.070 ng/mL
SMILES: CCCCOC(=O)c1ccc(NC(=O)NC(CC(C)C)c2nc(-c3nnc[nH]3)no2)cc1 (stereo not drawn) [L01.135, butyl 4-[{{3-methyl-1-[3-(4H-1,2,4-triazol-3-yl)-1,2,4-oxadiazol-5-yl]-butyl}carbamoyl)amino]-benzoate]
Average (% positive control) (BMDCs; [1]): 11.085 % positive control | cytotoxicity at 50 µM (BMDCs; [2]): 8.11% | cytotoxicity at 50 µM (BMDCs; [3]): 8.89% | IL-1β (NLRP3 inflammasome; [6]): 0.079 ng/mL and 0.073 ng/mL and 0.057 ng/mL

Average (% positive control) (NLRP3 inflammasome; [4]): 16.230 % positive control | Average IL-1β (NLRP3 inflammasome; [5]): 1.163 ng/mL
SMILES: O=C(Nc1ccccc1)Nc1ccc(NC(=O)C2CCCC2)cc1 [L01.104, N-{4-[(phenylcarbamo-yl)amino]phenyl}cyclo-pentanecarboxamide]
Average (% positive control) (BMDCs; [1]): 24.873 % positive control | cytotoxicity at 50 µM (BMDCs; [2]): 18.2% | cytotoxicity at 50 µM (BMDCs; [3]): 17.2% | IL-1β (NLRP3 inflammasome; [6]): 1.103 ng/mL and 1.142 ng/mL and 1.246 ng/mL

The remaining lines, values behind:

SMILES: O=C(Nc1ccc2ncccc2c1)NC1CCCCC1 [EN11-02, 1-cyclohexyl-3-(quin-olin-6-yl)urea]
Average (% positive control) (BMDCs; 25 μM, positive control EN22 25 μM): 20.897 % positive control | Average (% positive control) (BMDCs; 50 μM, positive control EN22 25 μM): 21.105 % positive control | Average (% positive control) (BMDCs; 100 μM, positive control EN22 25 μM): 19.808 % positive control | cytotoxicity at 25 µM (BMDCs; 25 μM, EN11 series table, read-out: Average LDH release (% of max.)): 10.6% | cytotoxicity at 25 µM (BMDCs; 25 μM, individual replicate values, EN11 series table, read-out: LDH release (% of max.)): 10.8% | cytotoxicity at 50 µM (BMDCs; 50 μM, EN11 series table, read-out: Average LDH release (% of max.)): 10.7% | cytotoxicity at 50 µM (BMDCs; 50 μM, individual replicate values, EN11 series table, read-out: LDH release (% of max.)): 10.4% | cytotoxicity at 100 µM (BMDCs; 100 μM, individual replicate values, read-out: LDH release (% of max.)): 10.1% | cytotoxicity at 100 µM (BMDCs; 100 μM, read-out: Average LDH release (% of max.)): 10.1% | Average IL-1β (NLRP3 inflammasome; 25 μM, EN11 series table): 0.015 ng/mL | IL-1β (NLRP3 inflammasome; 25 μM, individual replicate values, EN11 series table): 0.015 ng/mL | Average IL-1β (NLRP3 inflammasome; 50 μM, EN11 series table): 0.042 ng/mL | IL-1β (NLRP3 inflammasome; 50 μM, individual replicate values, EN11 series table): 0.040 ng/mL and 0.050 ng/mL and 0.036 ng/mL | Average IL-1β (NLRP3 inflammasome; 100 μM): 0.050 ng/mL | IL-1β (NLRP3 inflammasome; 100 μM, individual replicate values): 0.053 ng/mL and 0.052 ng/mL and 0.046 ng/mL | Average (% positive control) (NLRP3 inflammasome; IL-1β, 25 μM, positive control EN22 25 μM): 1.019 % positive control | Average (% positive control) (NLRP3 inflammasome; IL-1β, 50 μM, positive control EN22 25 μM): 2.832 % positive control | Average (% positive control) (NLRP3 inflammasome; IL-1β, 100 μM, positive control EN22 25 μM): 3.424 % positive control

SMILES: O=C(Nc1ccccc1)Nc1ccc2c(c1)CCC2 [L01.066, 3-(2,3-dihydro-1H-inden-5-yl)-1-phenyl-urea]
Average (% positive control) (BMDCs; [1]): 19.592 % positive control | cytotoxicity at 50 µM (BMDCs; [2]): 14.3% | cytotoxicity at 50 µM (BMDCs; [3]): 15.6% | Average (% positive control) (NLRP3 inflammasome; [4]): 3.698 % positive control | Average IL-1β (NLRP3 inflammasome; [5]): 0.265 ng/mL | IL-1β (NLRP3 inflammasome; [6]): 0.346 ng/mL and 0.256 ng/mL and 0.193 ng/mL

SMILES: O=C(Nc1ccccc1)Nc1ccc2ncc(Br)cc2c1 [JB004, 1-(3-bromoquinolin-6-yl)-3-phenylurea]
Average (% positive control) (BMDCs; 20 μM, positive control EN22 20 μM): 39.589 % positive control | Average (% positive control) (BMDCs; 40 μM, positive control EN22 20 μM): 51.749 % positive control | Average (% positive control) (BMDCs; 80 μM, positive control EN22 20 μM): 68.244 % positive control | cytotoxicity at 20 µM (BMDCs; 20 μM, individual replicate values, read-out: LDH release (% of max.)): 31% | cytotoxicity at 20 µM (BMDCs; 20 μM, read-out: Average LDH release (% of max.)): 21.1% | cytotoxicity at 40 µM (BMDCs; 40 μM, individual replicate values, read-out: LDH release (% of max.)): 25.6% | cytotoxicity at 40 µM (BMDCs; 40 μM, read-out: Average LDH release (% of max.)): 27.6% | cytotoxicity at 80 µM (BMDCs; 80 μM, individual replicate values, read-out: LDH release (% of max.)): 34.3% | cytotoxicity at 80 µM (BMDCs; 80 μM, read-out: Average LDH release (% of max.)): 36.4% | Average IL-1β (NLRP3 inflammasome; 20 μM): 0.971 ng/mL | IL-1β (NLRP3 inflammasome; 20 μM, individual replicate values): 0.966 ng/mL and 0.765 ng/mL and 1.182 ng/mL | Average IL-1β (NLRP3 inflammasome; 40 μM): 1.507 ng/mL | IL-1β (NLRP3 inflammasome; 40 μM, individual replicate values): 1.350 ng/mL and 1.479 ng/mL and 1.691 ng/mL | Average IL-1β (NLRP3 inflammasome; 80 μM): 1.657 ng/mL | IL-1β (NLRP3 inflammasome; 80 μM, individual replicate values): 1.684 ng/mL and 1.413 ng/mL and 1.876 ng/mL | Average (% positive control) (NLRP3 inflammasome; IL-1β, 20 μM, positive control EN22): 49.601 % positive control | Average (% positive control) (NLRP3 inflammasome; IL-1β, 40 μM, positive control EN22): 76.971 % positive control | Average (% positive control) (NLRP3 inflammasome; IL-1β, 80 μM, positive control EN22): 84.675 % positive control
